Laboratory results: publication PMC10794144, “A novel antibiotic class targeting the lipopolysaccharide transporter” (Nature, 2024)
≈ marks a conversion by molar mass, not a printed value. Where two headings read alike, the source gives them in different places. Marks after values point to notes of the source that are not given here.

Tests used:
S. aureus ATCC 29213 = assay: microbe, parasite or virus in culture; conditions: Staphylococcus aureus
Experimental: MIC determinations were performed using the broth microdilution method and in line with CLSI guidelines M07 and M100 (refs. [37],[38]). Bacterial inocula were prepared by diluting a 0.5 McFarland suspension in CAMHB or lysogeny broth (LB) specifically for A. baylyi isolates. […] MIC values of all of the tested antibiotics were read as the lowest compound concentration inhibiting bacterial growth by naked eye or beyond which the OD600 ceased to decrease.

panel of 50 off-targets = assay: Off-target activity screening, number of hits in panel of 50; type: binding; conditions: > 30% inhibition at 10 μM
CYP2D6 = CYP2D6 (Homo sapiens, UniProt P10635); assay: CYP inhibition; type: in vitro ADME
Sequence of CYP2D6 (P10635 whole entry): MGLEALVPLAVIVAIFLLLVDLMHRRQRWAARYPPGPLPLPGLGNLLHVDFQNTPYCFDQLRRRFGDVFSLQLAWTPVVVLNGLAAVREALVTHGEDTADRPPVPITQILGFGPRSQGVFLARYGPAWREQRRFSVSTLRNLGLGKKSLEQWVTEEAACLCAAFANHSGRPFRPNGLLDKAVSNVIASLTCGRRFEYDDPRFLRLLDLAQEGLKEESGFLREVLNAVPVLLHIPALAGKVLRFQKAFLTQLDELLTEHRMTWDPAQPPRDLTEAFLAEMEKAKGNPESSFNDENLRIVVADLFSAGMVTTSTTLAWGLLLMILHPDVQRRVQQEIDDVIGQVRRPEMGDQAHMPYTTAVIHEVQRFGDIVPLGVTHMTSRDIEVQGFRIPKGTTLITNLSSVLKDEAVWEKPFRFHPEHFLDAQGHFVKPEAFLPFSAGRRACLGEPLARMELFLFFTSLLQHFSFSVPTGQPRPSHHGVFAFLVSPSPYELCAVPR

GSH adduct = type: in vitro ADME
[1] = Rat plasma precipitation assay; conditions: Wistar rat heparin plasma 1:1 with compound in saline/PBS; absorbance difference OD362 ≥ 0.05; n = 1
Experimental: Whole blood was obtained from WISTAR rats and collected in 1.2 ml heparin tubes for the preparation of heparin plasma. The tubes were then centrifuged for 5 min at 5,200g at room temperature to isolate the plasma supernatant. Test compounds were received as powder and solubilized at various concentrations in 0.9% aqueous sodium chloride solution and adjusted for pH with phosphate-buffered saline (PBS). The assay was conducted in 384-well plates. Rat plasma (10 µl) was added to 10 µl of the various compound solutions. A total of 10 µl of vehicle (0.9% aqueous sodium chloride solution, PBS) added to the plasma was used as a negative control. The absorption was measured at 362 nm. Raw data were obtained as absorbance data. The difference between the absorbance of the sample and the mean absorbance of the vehicle was calculated. The minimum effect concentration was defined as the lowest concentration giving an absorbance difference of OD362 ≥ 0.05.

Abl kinase = biological target: T1, Abl kinase (Homo sapiens, UniProt P00519); assay: Off-target screening (CEREP); type: biochemical; conditions: 10 µM, duplicates; read-out: percent inhibition
T1 construct: purchased Eurofins CEREP SA
T1 sequence (P00519 whole entry): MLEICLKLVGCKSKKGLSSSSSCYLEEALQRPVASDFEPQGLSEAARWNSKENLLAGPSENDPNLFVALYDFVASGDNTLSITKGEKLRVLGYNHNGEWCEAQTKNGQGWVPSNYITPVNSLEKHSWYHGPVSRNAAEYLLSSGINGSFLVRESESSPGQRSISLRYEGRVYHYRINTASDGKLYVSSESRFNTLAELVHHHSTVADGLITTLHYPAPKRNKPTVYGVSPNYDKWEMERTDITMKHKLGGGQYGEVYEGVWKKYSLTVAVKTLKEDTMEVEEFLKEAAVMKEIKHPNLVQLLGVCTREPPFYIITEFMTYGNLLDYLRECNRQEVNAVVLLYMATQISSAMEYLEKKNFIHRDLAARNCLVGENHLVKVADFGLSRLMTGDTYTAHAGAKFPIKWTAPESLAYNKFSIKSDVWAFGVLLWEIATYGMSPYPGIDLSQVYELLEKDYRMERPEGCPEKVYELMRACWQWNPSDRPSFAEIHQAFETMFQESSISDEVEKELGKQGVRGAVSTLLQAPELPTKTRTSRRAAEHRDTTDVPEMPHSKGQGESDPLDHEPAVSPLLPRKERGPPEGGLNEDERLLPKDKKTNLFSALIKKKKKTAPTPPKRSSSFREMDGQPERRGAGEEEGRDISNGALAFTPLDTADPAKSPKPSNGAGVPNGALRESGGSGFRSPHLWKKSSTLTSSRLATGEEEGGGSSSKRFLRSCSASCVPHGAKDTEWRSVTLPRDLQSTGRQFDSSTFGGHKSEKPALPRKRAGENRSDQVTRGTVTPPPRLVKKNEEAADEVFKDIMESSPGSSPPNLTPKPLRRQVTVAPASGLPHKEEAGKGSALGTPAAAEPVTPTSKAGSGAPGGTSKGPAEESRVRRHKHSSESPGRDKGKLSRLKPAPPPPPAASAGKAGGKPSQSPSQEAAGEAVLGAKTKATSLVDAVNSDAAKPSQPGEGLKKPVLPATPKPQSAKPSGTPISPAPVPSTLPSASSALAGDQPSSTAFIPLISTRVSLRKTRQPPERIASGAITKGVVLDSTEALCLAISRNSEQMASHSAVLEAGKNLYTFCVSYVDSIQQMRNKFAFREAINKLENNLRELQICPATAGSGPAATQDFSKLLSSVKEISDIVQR
Experimental: (§1) Supplementary Table 1 │ Off-target activity screening f or MCP compou nds […]
(§2) The assays given in the table above were conducted at Eurofins CEREP S A (Celle-Lévescault, France) and were run as single point measurements in duplicates in the presence of 10 µ M of the test compound and reported as percent inhibition of the radioligand signal or control enzymatic activity. n.d., not

Acetylcholinesterase = biological target: T2, Acetylcholinesterase (Homo sapiens, UniProt P22303); assay: Off-target screening (CEREP); type: biochemical; conditions: 10 µM, duplicates; read-out: percent inhibition
T2 construct: purchased Eurofins CEREP SA
T2 sequence (P22303 32-614): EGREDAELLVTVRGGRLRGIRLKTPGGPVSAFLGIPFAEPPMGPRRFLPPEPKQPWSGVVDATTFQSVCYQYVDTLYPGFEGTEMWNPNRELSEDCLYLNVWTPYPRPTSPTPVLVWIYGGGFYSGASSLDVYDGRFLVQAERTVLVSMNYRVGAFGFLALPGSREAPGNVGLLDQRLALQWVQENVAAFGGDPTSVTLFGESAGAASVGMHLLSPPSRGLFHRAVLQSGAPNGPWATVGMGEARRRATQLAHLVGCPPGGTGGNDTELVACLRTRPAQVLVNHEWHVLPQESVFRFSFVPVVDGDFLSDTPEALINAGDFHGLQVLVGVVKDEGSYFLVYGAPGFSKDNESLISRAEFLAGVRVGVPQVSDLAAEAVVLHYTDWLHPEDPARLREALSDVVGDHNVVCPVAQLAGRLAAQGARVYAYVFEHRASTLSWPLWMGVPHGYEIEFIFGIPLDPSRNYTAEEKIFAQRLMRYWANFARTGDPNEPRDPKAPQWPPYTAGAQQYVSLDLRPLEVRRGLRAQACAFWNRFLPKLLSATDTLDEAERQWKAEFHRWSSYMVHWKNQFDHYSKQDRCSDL
Experimental: as §1, §2

[2] = biological target: T3, Angiotensin converting enzyme (Homo sapiens, UniProt P12821); assay: Off-target screening (CEREP); type: biochemical; conditions: 10 µM, duplicates; read-out: percent inhibition
T3 construct: purchased Eurofins CEREP SA
T3 sequence (P12821 30-1306): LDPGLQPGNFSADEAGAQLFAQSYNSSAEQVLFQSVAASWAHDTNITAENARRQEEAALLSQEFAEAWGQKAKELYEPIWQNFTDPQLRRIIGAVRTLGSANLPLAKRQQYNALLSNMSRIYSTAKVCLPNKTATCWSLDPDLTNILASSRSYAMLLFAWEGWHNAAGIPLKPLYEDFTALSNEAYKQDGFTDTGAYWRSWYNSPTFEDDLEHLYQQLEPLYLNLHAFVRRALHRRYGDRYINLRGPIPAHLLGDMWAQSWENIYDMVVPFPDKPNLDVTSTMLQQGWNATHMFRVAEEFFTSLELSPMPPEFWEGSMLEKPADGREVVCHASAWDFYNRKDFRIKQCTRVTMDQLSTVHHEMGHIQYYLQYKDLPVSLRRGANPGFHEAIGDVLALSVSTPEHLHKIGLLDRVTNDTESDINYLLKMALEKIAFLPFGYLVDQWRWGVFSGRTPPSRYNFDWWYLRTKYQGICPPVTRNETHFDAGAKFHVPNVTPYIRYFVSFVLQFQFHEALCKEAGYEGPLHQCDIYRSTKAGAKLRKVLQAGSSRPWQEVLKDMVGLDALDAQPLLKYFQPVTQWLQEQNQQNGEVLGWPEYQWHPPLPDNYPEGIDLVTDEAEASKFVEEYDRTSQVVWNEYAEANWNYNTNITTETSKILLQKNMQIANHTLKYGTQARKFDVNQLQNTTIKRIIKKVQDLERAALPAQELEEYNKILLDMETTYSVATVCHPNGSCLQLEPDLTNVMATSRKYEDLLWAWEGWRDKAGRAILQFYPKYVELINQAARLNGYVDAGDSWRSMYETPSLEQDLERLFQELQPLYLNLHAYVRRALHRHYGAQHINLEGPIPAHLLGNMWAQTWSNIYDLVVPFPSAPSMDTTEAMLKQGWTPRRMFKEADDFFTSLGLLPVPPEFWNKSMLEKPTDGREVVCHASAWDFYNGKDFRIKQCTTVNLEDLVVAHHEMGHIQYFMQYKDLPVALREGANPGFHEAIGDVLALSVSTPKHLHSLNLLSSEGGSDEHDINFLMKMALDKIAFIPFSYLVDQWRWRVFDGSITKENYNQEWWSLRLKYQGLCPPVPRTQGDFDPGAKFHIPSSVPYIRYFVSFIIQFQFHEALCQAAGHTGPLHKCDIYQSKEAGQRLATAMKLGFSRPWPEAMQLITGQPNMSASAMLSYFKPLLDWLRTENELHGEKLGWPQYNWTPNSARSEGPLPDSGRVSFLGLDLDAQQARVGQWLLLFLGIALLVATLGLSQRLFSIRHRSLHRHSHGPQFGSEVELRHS
Experimental: as §1, §2

CDK2 = biological target: T4, CDK2 (Homo sapiens, UniProt P24941); assay: Off-target screening (CEREP); type: biochemical; conditions: 10 µM, duplicates; read-out: percent inhibition
T4 construct: purchased Eurofins CEREP SA
Experimental: as §1, §2

Cyclooxygenase 2 = biological target: T5, Cyclooxygenase 2 (Homo sapiens, UniProt P35354); assay: Off-target screening (CEREP); type: biochemical; conditions: 10 µM, duplicates; read-out: percent inhibition
T5 construct: purchased Eurofins CEREP SA
T5 sequence (P35354 18-604): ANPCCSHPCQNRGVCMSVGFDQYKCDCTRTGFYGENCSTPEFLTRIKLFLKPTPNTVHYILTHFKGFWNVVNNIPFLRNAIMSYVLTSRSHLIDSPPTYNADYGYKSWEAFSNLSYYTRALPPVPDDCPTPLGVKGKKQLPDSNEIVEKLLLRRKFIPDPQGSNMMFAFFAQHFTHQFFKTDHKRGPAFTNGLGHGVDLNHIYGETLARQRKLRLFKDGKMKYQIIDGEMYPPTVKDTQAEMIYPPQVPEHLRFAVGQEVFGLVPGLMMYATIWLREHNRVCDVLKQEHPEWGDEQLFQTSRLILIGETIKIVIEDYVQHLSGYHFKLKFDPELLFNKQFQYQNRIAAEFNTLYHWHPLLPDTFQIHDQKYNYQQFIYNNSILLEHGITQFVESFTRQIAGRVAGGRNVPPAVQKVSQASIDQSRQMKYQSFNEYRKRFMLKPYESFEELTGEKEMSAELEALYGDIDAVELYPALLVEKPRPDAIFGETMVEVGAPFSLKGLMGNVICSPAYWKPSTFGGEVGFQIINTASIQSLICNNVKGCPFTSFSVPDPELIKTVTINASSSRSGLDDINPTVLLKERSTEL
Experimental: as §1, §2

HIV-1 protease = assay: Off-target screening (CEREP); type: biochemical; conditions: 10 µM, duplicates
Experimental: as §1, §2

Matrix metalloprotease-9 = biological target: T6, Matrix metalloprotease-9 (Homo sapiens, UniProt P14780); assay: Off-target screening (CEREP); type: biochemical; conditions: 10 µM, duplicates; read-out: percent inhibition
T6 construct: purchased Eurofins CEREP SA
T6 sequence (P14780 94-707): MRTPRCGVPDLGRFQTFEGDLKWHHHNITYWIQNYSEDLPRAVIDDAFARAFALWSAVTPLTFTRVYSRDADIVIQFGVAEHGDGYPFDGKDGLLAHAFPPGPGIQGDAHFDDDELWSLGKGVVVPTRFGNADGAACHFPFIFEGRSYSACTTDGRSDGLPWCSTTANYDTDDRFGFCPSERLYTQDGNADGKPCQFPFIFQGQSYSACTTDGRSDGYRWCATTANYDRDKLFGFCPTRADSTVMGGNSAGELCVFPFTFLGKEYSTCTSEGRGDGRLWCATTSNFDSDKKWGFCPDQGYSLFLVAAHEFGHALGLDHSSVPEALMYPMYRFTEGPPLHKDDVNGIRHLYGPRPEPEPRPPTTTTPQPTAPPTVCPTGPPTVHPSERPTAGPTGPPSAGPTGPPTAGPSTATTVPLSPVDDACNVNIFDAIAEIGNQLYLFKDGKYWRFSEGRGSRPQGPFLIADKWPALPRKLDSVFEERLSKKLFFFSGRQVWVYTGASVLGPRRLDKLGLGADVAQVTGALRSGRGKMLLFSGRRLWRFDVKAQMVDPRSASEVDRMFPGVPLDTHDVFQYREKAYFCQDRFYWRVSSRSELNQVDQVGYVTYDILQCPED
Experimental: as §1, §2

Monoamine oxidase-A = biological target: T7, Monoamine oxidase-A (Homo sapiens, UniProt P21397); assay: Off-target screening (CEREP); type: biochemical; conditions: 10 µM, duplicates; read-out: percent inhibition
T7 construct: purchased Eurofins CEREP SA
T7 sequence (P21397 1-527): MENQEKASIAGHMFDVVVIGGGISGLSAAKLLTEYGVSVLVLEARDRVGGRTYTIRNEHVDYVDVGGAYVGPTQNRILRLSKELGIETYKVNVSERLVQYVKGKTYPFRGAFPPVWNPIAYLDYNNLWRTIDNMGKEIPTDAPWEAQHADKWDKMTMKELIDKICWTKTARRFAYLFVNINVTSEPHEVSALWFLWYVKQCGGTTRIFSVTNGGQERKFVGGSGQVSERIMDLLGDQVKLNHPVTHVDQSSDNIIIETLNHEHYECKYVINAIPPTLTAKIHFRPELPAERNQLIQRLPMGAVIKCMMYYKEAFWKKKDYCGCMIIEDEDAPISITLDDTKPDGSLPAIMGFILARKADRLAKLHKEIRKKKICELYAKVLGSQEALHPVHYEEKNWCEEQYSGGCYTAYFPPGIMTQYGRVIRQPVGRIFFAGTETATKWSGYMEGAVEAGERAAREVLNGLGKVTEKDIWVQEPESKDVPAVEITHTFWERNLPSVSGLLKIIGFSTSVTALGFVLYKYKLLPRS
Experimental: as §1, §2

Phosphodiesterase 4D2 = biological target: T8, Phosphodiesterase 4D2 (Homo sapiens, UniProt Q08499); assay: Off-target screening (CEREP); type: biochemical; conditions: 10 µM, duplicates; read-out: percent inhibition
T8 construct: purchased Eurofins CEREP SA
T8 sequence (Q08499 303-809 limits assumed): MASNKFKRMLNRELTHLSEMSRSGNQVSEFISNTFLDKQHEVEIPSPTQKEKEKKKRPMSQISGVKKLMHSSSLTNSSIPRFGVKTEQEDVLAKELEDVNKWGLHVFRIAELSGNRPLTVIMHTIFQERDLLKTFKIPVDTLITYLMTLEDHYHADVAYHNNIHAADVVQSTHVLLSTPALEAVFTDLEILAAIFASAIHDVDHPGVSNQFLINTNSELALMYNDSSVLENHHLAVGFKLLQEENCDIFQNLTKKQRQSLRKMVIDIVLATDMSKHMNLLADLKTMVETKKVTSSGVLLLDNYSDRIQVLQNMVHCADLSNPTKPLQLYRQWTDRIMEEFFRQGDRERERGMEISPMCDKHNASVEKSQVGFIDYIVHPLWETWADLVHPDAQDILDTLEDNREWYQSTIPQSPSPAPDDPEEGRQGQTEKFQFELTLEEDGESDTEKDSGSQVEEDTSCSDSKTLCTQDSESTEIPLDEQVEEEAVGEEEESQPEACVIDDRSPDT
Experimental: as §1, §2

[3] = system: GSK-3A (second line so named); assay: Off-target screening (CEREP); type: biochemical, human; conditions: 10 µM, duplicates
Experimental: as §1, §2

C. albicans ATCC 90028 = assay: microbe, parasite or virus in culture; conditions: Candida albicans
[4] = ATCC29213, CAMHB, mode of at least three replicates (RO7036668 one replicate)

## CN1C(=O)[C@H](CCCCN)NC(=O)[C@H](CCCN)NCc2cccnc2Sc2c(Cl)ccc(-c3ccc(C(=O)O)cc3)c2CNC(=O)[C@@H]1Cc1c[nH]c2ccccc12 [RO7202110]
S. aureus ATCC 29213; [4]
  MIC: > 64 µg/mL
Panel of 50 off-targets
  Off-target hits: 2 #
Ames
  Ames: Negative
CYP2D6
  CYP inh. (2D6): >50 (3A4) >50 (2C9) >50 (2D6) μM
GSH adduct
  GSH adduct: Clean
[1]
  Threshold concentration for precipitation: 0.39 mg/mL
Abl kinase
  inhibition at 10 µM: -24%
Acetylcholinesterase
  inhibition at 10 µM: 40%
[2]
  inhibition at 10 µM: 3%
CDK2
  inhibition at 10 µM: 17%
Cyclooxygenase 2
  inhibition at 10 µM: 12%
HIV-1 protease
  percent inhibition: 12%
Matrix metalloprotease-9
  inhibition at 10 µM: 13%
Monoamine oxidase-A
  inhibition at 10 µM: 11%
Phosphodiesterase 4D2
  inhibition at 10 µM: -3%
[3]
  percent inhibition: -6%
C. albicans ATCC 90028; ATCC90028
  MIC: > 64 µg/mL

## C[C@@H](O)[C@H]1C(=O)N2C(C(=O)O)=C(S[C@@H]3CN[C@H](C(=O)N(C)C)C3)[C@H](C)[C@H]12 [meropenem, reference compound]
S. aureus ATCC 29213; [4]
  MIC: 0.12 µg/mL (≈ 0.313 µM)
S. aureus ATCC 29213; ATCC29213, read-out: MIC 100%, Study LGC277937, 100%
  MIC: 0.12 µg/mL (≈ 0.313 µM)
S. aureus ATCC 29213; ATCC29213, read-out: MIC 100%, Study LGC279800, 100%
  MIC: ≤ 0.06 µg/mL
S. aureus ATCC 29213; ATCC29213, read-out: MIC 100%, Study LGC281440, 100%
  MIC: 0.12 µg/mL (≈ 0.313 µM)
S. aureus ATCC 29213; ATCC29213, read-out: MIC 100%, Study LGC282160, 100%
  MIC: ≤ 0.06 µg/mL
S. aureus ATCC 29213; ATCC29213, read-out: MIC 100%, Study LGC282623, 100%
  MIC: 0.12 µg/mL (≈ 0.313 µM)
S. aureus ATCC 29213; ATCC29213, read-out: MIC 100%, Study LGC283932, 100%
  MIC: 0.12 µg/mL (≈ 0.313 µM)
S. aureus ATCC 29213; ATCC29213, read-out: MIC 100%, Study LGC284200, 100%
  MIC: 0.12 µg/mL (≈ 0.313 µM)
S. aureus ATCC 29213; ATCC29213, read-out: MIC 100%, Study LGC284879, 100%
  MIC: 0.12 µg/mL (≈ 0.313 µM)
S. aureus ATCC 29213; ATCC29213, read-out: MIC 100%, Study LGC285582, 100%
  MIC: 0.12 µg/mL (≈ 0.313 µM)
S. aureus ATCC 29213; ATCC29213, read-out: MIC 100%, Study LGC286210, 100%
  MIC: 0.25 µg/mL (≈ 0.652 µM)
S. aureus ATCC 29213; ATCC29213, read-out: MIC 100%, Study LGC293598, 100%
  MIC: 0.12 µg/mL (≈ 0.313 µM)
S. aureus ATCC 29213; ATCC29213, read-out: MIC 100%, Study LGC294355, 100%
  MIC: ≤ 0.06 µg/mL
S. aureus ATCC 29213; ATCC29213, read-out: MIC 100%, Study LGC295147, 100%
  MIC: 0.12 µg/mL (≈ 0.313 µM)
S. aureus ATCC 29213; ATCC29213, read-out: MIC 100%, Study LGC296813, 100%
  MIC: ≤ 0.06 µg/mL
S. aureus ATCC 29213; ATCC29213, read-out: MIC 100%, Study LGC299544, 100%
  MIC: 0.12 µg/mL (≈ 0.313 µM)
S. aureus ATCC 29213; ATCC29213, read-out: MIC 100%, Study LGC301026, 100%
  MIC: 0.12 µg/mL (≈ 0.313 µM)
S. aureus ATCC 29213; ATCC29213, read-out: MIC 100%, Study LGC308175, 100%
  MIC: ≤ 0.06 µg/mL
S. aureus ATCC 29213; ATCC29213, read-out: MIC 100%, Study ROC003, 100%
  MIC: ≤ 0.06 µg/mL
S. aureus ATCC 29213; ATCC29213, read-out: MIC 100%, Study ROC004, 100%
  MIC: ≤ 0.06 µg/mL
S. aureus ATCC 29213; ATCC29213, read-out: MIC 100%, Study ROC005, 100%
  MIC: ≤ 0.06 µg/mL
S. aureus ATCC 29213; ATCC29213, read-out: MIC 100%, Study ROC006, 100%
  MIC: 0.12 µg/mL (≈ 0.313 µM)
S. aureus ATCC 29213; ATCC29213, read-out: MIC 100%, Study ROC007, 100%
  MIC: 0.12 µg/mL (≈ 0.313 µM)
S. aureus ATCC 29213; ATCC29213, read-out: MIC 100%, Study ROC008, 100%
  MIC: 0.12 µg/mL (≈ 0.313 µM)
S. aureus ATCC 29213; ATCC29213, read-out: MIC 100%, Study ROC009, 100%
  MIC: ≤ 0.06 µg/mL
S. aureus ATCC 29213; ATCC29213, read-out: MIC 100%, Study ROC010, 100%
  MIC: ≤ 0.06 µg/mL
S. aureus ATCC 29213; ATCC29213, read-out: MIC 100%, Study ROC012, 100%
  MIC: ≤ 0.06 µg/mL
S. aureus ATCC 29213; ATCC29213, read-out: MIC 100%, Study ROC013, 100%
  MIC: 0.12 µg/mL (≈ 0.313 µM)
C. albicans ATCC 90028; ATCC90028
  MIC: > 64 µg/mL
C. albicans ATCC 90028; ATCC90028, read-out: MIC 100%
  MIC: > 64 µg/mL
